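These data come from cells grown in 96-well plates and exposed to compound for 48 hours at five concentrations. GI50 = concentration required for 50% inhibition of growth.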 The source made the active and inactive calls. Cut-off read from the data, not from the text of the source: active = GI50 up to about 1.1 µM and inactive = higher.
Tests used:
Experiment in all cases: inhibition of tumour cell growth, NCI panel, 48 h
[1] = test system: OVCAR-5
[2] = test system: NCI-H23
[3] = test system: SK-MEL-28
[4] = test system: NCI/ADR-RES
[5] = test system: LOX IMVI
[6] = test system: SNB-75
[7] = test system: BT-549
[8] = test system: SK-MEL-2
[9] = test system: MDA-MB-435
[10] = test system: MDA-MB-231
[11] = test system: UO-31
[12] = test system: NCI-H460
[13] = test system: ACHN
[14] = test system: HOP-92
[15] = test system: PC-3
[16] = test system: UACC-257
[17] = test system: EKVX
[18] = test system: RXF 393
[19] = test system: HCT-15
[20] = test system: CAKI-1
[21] = test system: HCT-116
[22] = test system: KM12
[23] = test system: DU-145
[24] = test system: NCI-H226
[25] = test system: SN12C
[26] = test system: K562
[27] = test system: MCF7
[28] = test system: SF-295
[29] = test system: M14
[30] = test system: MDA-N
[31] = test system: SK-MEL-5
[32] = test system: NCI-H522
[33] = test system: IGROV-1
[34] = test system: SK-OV-3
[35] = test system: A498
[36] = test system: A549
[37] = test system: HCC 2998
[38] = test system: OVCAR-3
[39] = test system: U-251
[40] = test system: Hs-578T
[41] = test system: HL-60
[42] = test system: T47D
[43] = test system: Malme-3M
[44] = test system: OVCAR-8
[45] = test system: OVCAR-4
[46] = test system: HT-29
[47] = test system: RPMI-8226
[48] = test system: TK-10
[49] = test system: SNB-19
[50] = test system: SF-539
[51] = test system: SW-620
[52] = test system: CCRF-CEM
[53] = test system: SF-268
[54] = test system: UACC-62
[55] = test system: 786-0
[56] = test system: COLO 205
[57] = test system: MOLT-4
[58] = test system: HOP-62

`Cn1c(=O)[nH]n(-c2ccc3ccccc3c2)c1=O` was tested, and the GI50 [1] was > 100 µM (inactive), the GI50 [2] was > 100 µM (inactive) and the GI50 [3] was > 100 µM (inactive). The GI50 [4] was > 100 µM (inactive), the GI50 [5] was > 100 µM (inactive) and the GI50 [6] was > 100 µM (inactive). For the same compound, the GI50 [7] was > 100 µM (inactive), the GI50 [8] was > 100 µM (inactive) and the GI50 [9] was > 100 µM (inactive). For the same compound, the GI50 [10] was > 100 µM (inactive), the GI50 [11] was > 100 µM (inactive) and the GI50 [12] was > 100 µM (inactive). The GI50 [13] was > 100 µM (inactive), the GI50 [14] was > 100 µM (inactive) and the GI50 [15] was > 100 µM (inactive). The GI50 [16] was > 100 µM (inactive), the GI50 [17] was > 100 µM (inactive) and the GI50 [18] was > 100 µM (inactive). The GI50 [19] was greater than 100 µM, the GI50 [20] was > 100 µM (inactive) and the GI50 [21] was > 100 µM (inactive). For the same compound, the GI50 [22] was > 100 µM (inactive), the GI50 [23] was > 100 µM (inactive) and the GI50 [24] was > 100 µM (inactive). For the same compound, the GI50 [25] was > 100 µM (inactive), the GI50 [26] was > 100 µM (inactive) and the GI50 [27] was > 100 µM (inactive). For the same compound, the GI50 [28] was > 100 µM (inactive), the GI50 [29] was > 100 µM (inactive) and the GI50 [30] was > 100 µM (inactive). The GI50 [31] was > 100 µM (inactive), the GI50 [32] was > 100 µM (inactive) and the GI50 [33] was > 100 µM (inactive). For the same compound, the GI50 [34] was > 100 µM (inactive), the GI50 [35] was > 100 µM (inactive) and the GI50 [36] was > 100 µM (inactive). The GI50 [37] was > 100 µM (inactive), the GI50 [38] was > 100 µM (inactive) and the GI50 [39] was > 100 µM (inactive). The GI50 [40] was > 100 µM (inactive), the GI50 [41] was > 100 µM (inactive) and the GI50 [42] was > 100 µM (inactive). The GI50 [43] was > 100 µM (inactive), the GI50 [44] was > 100 µM (inactive) and the GI50 [45] was > 100 µM (inactive). The GI50 [46] was > 100 µM (inactive), the GI50 [47] was > 100 µM (inactive) and the GI50 [48] was > 100 µM (inactive). For the same compound, the GI50 [49] was > 100 µM (inactive), the GI50 [50] was > 100 µM (inactive) and the GI50 [51] was > 100 µM (inactive). The GI50 [52] was > 100 µM (inactive), the GI50 [53] was > 100 µM (inactive) and the GI50 [54] was > 100 µM (inactive). For the same compound, the GI50 [55] was > 100 µM (inactive) and the GI50 [56] was > 100 µM (inactive).
`N#CC(C#N)=C1C(=O)NC(N)=C1C#N` was tested, and the GI50 [1] was > 100 µM (inactive), the GI50 [2] was > 100 µM (inactive) and the GI50 [3] was > 100 µM (inactive). The GI50 [4] was > 100 µM (inactive), the GI50 [5] was > 100 µM (inactive) and the GI50 [7] was > 100 µM (inactive). For the same compound, the GI50 [8] was > 100 µM (inactive), the GI50 [9] was > 100 µM (inactive) and the GI50 [10] was > 100 µM (inactive). For the same compound, the GI50 [11] was > 100 µM (inactive), the GI50 [57] was > 100 µM (inactive) and the GI50 [12] was > 100 µM (inactive). For the same compound, the GI50 [13] was > 100 µM (inactive), the GI50 [14] was > 100 µM (inactive) and the GI50 [15] was > 100 µM (inactive). For the same compound, the GI50 [16] was > 100 µM (inactive), the GI50 [17] was > 100 µM (inactive) and the GI50 [18] was > 100 µM (inactive). The GI50 [19] was greater than 100 µM, the GI50 [20] was > 100 µM (inactive) and the GI50 [21] was > 100 µM (inactive). For the same compound, the GI50 [22] was > 100 µM (inactive), the GI50 [23] was > 100 µM (inactive) and the GI50 [58] was > 100 µM (inactive). The GI50 [24] was > 100 µM (inactive), the GI50 [25] was > 100 µM (inactive) and the GI50 [26] was > 100 µM (inactive). The GI50 [27] was > 100 µM (inactive), the GI50 [28] was > 100 µM (inactive) and the GI50 [29] was > 100 µM (inactive). The GI50 [30] was > 100 µM (inactive), the GI50 [31] was > 100 µM (inactive) and the GI50 [32] was > 100 µM (inactive). For the same compound, the GI50 [33] was > 100 µM (inactive), the GI50 [34] was > 100 µM (inactive) and the GI50 [35] was > 100 µM (inactive). The GI50 [36] was > 100 µM (inactive), the GI50 [37] was > 100 µM (inactive) and the GI50 [39] was > 100 µM (inactive). The GI50 [40] was > 100 µM (inactive), the GI50 [41] was > 100 µM (inactive) and the GI50 [42] was > 100 µM (inactive). For the same compound, the GI50 [43] was > 100 µM (inactive), the GI50 [44] was > 100 µM (inactive) and the GI50 [45] was > 100 µM (inactive). The GI50 [46] was > 100 µM (inactive), the GI50 [47] was > 100 µM (inactive) and the GI50 [48] was > 100 µM (inactive). The GI50 [49] was > 100 µM (inactive), the GI50 [51] was > 100 µM (inactive) and the GI50 [52] was > 100 µM (inactive). The GI50 [53] was > 100 µM (inactive), the GI50 [54] was > 100 µM (inactive) and the GI50 [55] was > 100 µM (inactive). The GI50 [56] was > 100 µM (inactive).
